Results taken from ChEMBL document CHEMBL1201862, “PubChem BioAssay data set” (2004).
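Five concentrations, 48 hours, 96-well plates. GI50: concentration for 50% inhibition of growth.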 The source made the active and inactive calls. Rule as the data show it: active = GI50 up to about 1.1 µM and inactive = higher.

Experiments:
Assay in all cases: growth of human tumour cells (NCI), 48 h
K562 = test system: K562
RPMI-8226 = test system: RPMI-8226
T47D = test system: T47D
SNB-19 = test system: SNB-19
RXF 393 = test system: RXF 393
SF-295 = test system: SF-295
ACHN = test system: ACHN
TK-10 = test system: TK-10
U-251 = test system: U-251
HL-60 = test system: HL-60
DU-145 = test system: DU-145
HOP-92 = test system: HOP-92
SK-MEL-5 = test system: SK-MEL-5
PC-3 = test system: PC-3
NCI-H460 = test system: NCI-H460
SF-539 = test system: SF-539
HOP-62 = test system: HOP-62
OVCAR-4 = test system: OVCAR-4
HCC 2998 = test system: HCC 2998
Hs-578T = test system: Hs-578T

| SMILES | GI50 (K562) | GI50 (RPMI-8226) | GI50 (T47D) | GI50 (SNB-19) | GI50 (RXF 393) | GI50 (SF-295) | GI50 (ACHN) | GI50 (TK-10) | GI50 (U-251) | GI50 (HL-60) | GI50 (DU-145) | GI50 (HOP-92) | GI50 (SK-MEL-5) | GI50 (PC-3) | GI50 (NCI-H460) | GI50 (SF-539) | GI50 (HOP-62) | GI50 (OVCAR-4) | GI50 (HCC 2998) | GI50 (Hs-578T) |
| --- | --- | --- | --- | --- | --- | --- | --- | --- | --- | --- | --- | --- | --- | --- | --- | --- | --- | --- | --- | --- |
| O=C(O)CC1OCC=C2CN3CCC45c6ccccc6NC4C1C2CC35 (stereo not drawn) | > 100 µM (inactive) | > 100 µM (inactive) | > 100 µM (inactive) | > 100 µM (inactive) | > 100 µM (inactive) | > 100 µM (inactive) | > 100 µM (inactive) | > 100 µM (inactive) | > 100 µM (inactive) | > 100 µM (inactive) | > 100 µM (inactive) | > 100 µM (inactive) | > 100 µM (inactive) | > 100 µM (inactive) | > 100 µM (inactive) | > 100 µM (inactive) | > 100 µM (inactive) | > 100 µM (inactive) | – | – |
| COC(=O)CCC1=C(CC(=O)OC)C(C)(OC)N/C1=N/C(=O)OCc1ccccc1 (stereo not drawn) | > 100 µM (inactive) | > 100 µM (inactive) | > 100 µM (inactive) | > 100 µM (inactive) | > 100 µM (inactive) | > 100 µM (inactive) | > 100 µM (inactive) | > 100 µM (inactive) | > 100 µM (inactive) | – | > 100 µM (inactive) | – | > 100 µM (inactive) | > 100 µM (inactive) | > 100 µM (inactive) | > 100 µM (inactive) | > 100 µM (inactive) | > 100 µM (inactive) | > 100 µM (inactive) | – |
| Cc1ccccc1S(=O)(=O)Nn1cnc2ccc(S(=O)(=O)Nc3ccc(Cl)cc3)cc2c1=O | 10 µM (inactive) | 51.8 µM (inactive) | – | > 100 µM (inactive) | – | 48.4 µM (inactive) | > 100 µM (inactive) | > 100 µM (inactive) | > 100 µM (inactive) | > 100 µM (inactive) | > 100 µM (inactive) | > 100 µM (inactive) | – | 16.1 µM (inactive) | > 100 µM (inactive) | > 100 µM (inactive) | > 100 µM (inactive) | > 100 µM (inactive) | > 100 µM (inactive) | 28.8 µM (inactive) |
| Cc1cn(C2CCC(/C=N\O)O2)c(=O)[nH]c1=O (stereo not drawn) | > 100 µM (inactive) | > 100 µM (inactive) | > 100 µM (inactive) | > 100 µM (inactive) | > 100 µM (inactive) | > 100 µM (inactive) | > 100 µM (inactive) | – | > 100 µM (inactive) | – | > 100 µM (inactive) | > 100 µM (inactive) | > 100 µM (inactive) | > 100 µM (inactive) | > 100 µM (inactive) | > 100 µM (inactive) | > 100 µM (inactive) | > 100 µM (inactive) | > 100 µM (inactive) | – |
| COC(=O)C1(C(=O)OC)N=C(C)OC1C(C)C (stereo not drawn) | > 100 µM (inactive) | > 100 µM (inactive) | > 100 µM (inactive) | > 100 µM (inactive) | > 100 µM (inactive) | > 100 µM (inactive) | > 100 µM (inactive) | > 100 µM (inactive) | > 100 µM (inactive) | 37.5 µM (inactive) | > 100 µM (inactive) | > 100 µM (inactive) | > 100 µM (inactive) | > 100 µM (inactive) | > 100 µM (inactive) | – | > 100 µM (inactive) | > 100 µM (inactive) | > 100 µM (inactive) | – |
| C[C@]12C=CC(=O)C=C1CC[C@H]1[C@@H]3C[C@@H](O)[C@](O)(C(=O)CO)[C@@]3(C)C[C@H](O)[C@@]12F [TRIAMCINOLONE] | > 100 µM (inactive) | 11 µM (inactive) | – | > 100 µM (inactive) | > 100 µM (inactive) | > 100 µM (inactive) | > 100 µM (inactive) | > 100 µM (inactive) | > 100 µM (inactive) | > 100 µM (inactive) | – | > 100 µM (inactive) | > 100 µM (inactive) | – | > 100 µM (inactive) | > 100 µM (inactive) | > 100 µM (inactive) | > 100 µM (inactive) | > 100 µM (inactive) | – |
| C=CCOc1cc2c(cc1C(C)c1ccc(OC)cc1)OCO2 (stereo not drawn) | 0.39 µM (active) | 0.78 µM (active) | – | 0.564 µM (active) | 0.091 µM (active) | 0.299 µM (active) | 0.612 µM (active) | 7.41 µM (inactive) | 0.447 µM (active) | 0.196 µM (active) | 10.6 µM (inactive) | – | 0.601 µM (active) | 0.352 µM (active) | 0.409 µM (active) | 0.333 µM (active) | 0.495 µM (active) | > 100 µM (inactive) | 0.887 µM (active) | – |
| CC(C)CCC[C@@H](C)C1CCC2[C@@H]3CC=C4C[C@@H](C(=O)NCCN(C)C)CC[C@]4(C)C3CC[C@@]21C (stereo partly drawn) | 33 µM (inactive) | 19.8 µM (inactive) | – | 28.6 µM (inactive) | > 100 µM (inactive) | 44.4 µM (inactive) | 35.8 µM (inactive) | 23.7 µM (inactive) | 30 µM (inactive) | 45.8 µM (inactive) | – | 5.89 µM (inactive) | > 10 µM (inactive) | – | 32.9 µM (inactive) | 17.1 µM (inactive) | 18.9 µM (inactive) | 30.4 µM (inactive) | 23.5 µM (inactive) | – |
| Cc1cccc2c1Oc1cc(Cl)ccc1C2NC(=O)CCN1CCN(CCO)CC1 (stereo not drawn) | 18.2 µM (inactive) | – | 17.4 µM (inactive) | 22 µM (inactive) | – | 18.3 µM (inactive) | – | > 10 µM (inactive) | 15.1 µM (inactive) | 9.46 µM (inactive) | 27.2 µM (inactive) | 10.7 µM (inactive) | 14 µM (inactive) | 14.5 µM (inactive) | 19.1 µM (inactive) | 13.1 µM (inactive) | 17.2 µM (inactive) | 16 µM (inactive) | 28.6 µM (inactive) | – |
| Clc1cc(Cc2cc(Cl)c(Cl)c3c2OCOC3)c2c(c1Cl)COCO2 | 43.9 µM (inactive) | 33.4 µM (inactive) | – | 38 µM (inactive) | 31.7 µM (inactive) | 26.2 µM (inactive) | 32.4 µM (inactive) | 29.9 µM (inactive) | 29.1 µM (inactive) | 93.1 µM (inactive) | – | 16.9 µM (inactive) | 43.2 µM (inactive) | – | 43.8 µM (inactive) | 17.8 µM (inactive) | 25.8 µM (inactive) | 18.7 µM (inactive) | > 100 µM (inactive) | – |
| O=C(Nc1nc2ccccc2n1Cc1ccc(Cl)cc1)NC12CC3CC(CC(C3)C1)C2 | 32.3 µM (inactive) | 48.9 µM (inactive) | – | 24.9 µM (inactive) | 20.5 µM (inactive) | 10.9 µM (inactive) | 35.7 µM (inactive) | 32.5 µM (inactive) | 20.7 µM (inactive) | > 100 µM (inactive) | – | 19.9 µM (inactive) | 33.3 µM (inactive) | – | 20.1 µM (inactive) | 24.3 µM (inactive) | 17.1 µM (inactive) | 8.99 µM (inactive) | > 100 µM (inactive) | – |
| NC(=S)N/N=C1\C(=O)C=C(Nc2ccc(Cl)cc2Cl)c2ccccc21 | – | – | 23.5 µM (inactive) | 25.5 µM (inactive) | 18.6 µM (inactive) | 12.8 µM (inactive) | 10.3 µM (inactive) | 32.4 µM (inactive) | 11 µM (inactive) | 84.3 µM (inactive) | 96.6 µM (inactive) | 15.8 µM (inactive) | 27.4 µM (inactive) | – | 57.4 µM (inactive) | 7.38 µM (inactive) | 4.34 µM (inactive) | 33.2 µM (inactive) | > 100 µM (inactive) | – |
| C=CC(C)(C)n1cc(C2=C3OC(=O)C(c4cn(C(C)(C)C=C)c5ccccc45)=C3OC2=O)c2ccccc21 | > 100 µM (inactive) | > 100 µM (inactive) | – | > 100 µM (inactive) | > 100 µM (inactive) | > 100 µM (inactive) | > 100 µM (inactive) | > 100 µM (inactive) | > 100 µM (inactive) | > 100 µM (inactive) | > 100 µM (inactive) | > 100 µM (inactive) | > 100 µM (inactive) | > 100 µM (inactive) | > 100 µM (inactive) | > 100 µM (inactive) | > 100 µM (inactive) | > 100 µM (inactive) | > 100 µM (inactive) | > 10 µM (inactive) |
| CC1=Nc2c(ccc3c2C(=O)c2ccccc2C3=O)NC(c2cccc3c2CCC3)C1 (stereo not drawn) | 21.4 µM (inactive) | > 100 µM (inactive) | – | > 100 µM (inactive) | > 100 µM (inactive) | > 100 µM (inactive) | 25.3 µM (inactive) | > 100 µM (inactive) | > 100 µM (inactive) | 1.58 µM (inactive) | – | > 65 µM (inactive) | > 100 µM (inactive) | – | 47.8 µM (inactive) | > 100 µM (inactive) | > 73.8 µM (inactive) | > 100 µM (inactive) | > 100 µM (inactive) | – |
| CC(=O)OC(C)(C)CCC(=O)[C@](C)(O)[C@H]1[C@H](O)C[C@@]2(C)[C@@H]3CCc4c(cc(OC5OC(CO)C(O)C(O)C5O)c(O)c4C)C3(C)C(=O)C[C@]12C (stereo partly drawn) | > 100 µM (inactive) | – | > 100 µM (inactive) | > 100 µM (inactive) | > 100 µM (inactive) | > 100 µM (inactive) | > 100 µM (inactive) | > 100 µM (inactive) | > 100 µM (inactive) | – | > 100 µM (inactive) | > 100 µM (inactive) | > 100 µM (inactive) | > 100 µM (inactive) | > 100 µM (inactive) | > 100 µM (inactive) | > 100 µM (inactive) | > 100 µM (inactive) | > 100 µM (inactive) | – |
| CCOC(=O)c1ccc(-c2ccc(Cl)cc2)[nH]1 | > 10 µM (inactive) | – | – | > 10 µM (inactive) | – | > 10 µM (inactive) | > 10 µM (inactive) | > 10 µM (inactive) | > 10 µM (inactive) | > 10 µM (inactive) | > 10 µM (inactive) | > 10 µM (inactive) | > 10 µM (inactive) | 0.0161 µM (active) | > 10 µM (inactive) | > 10 µM (inactive) | – | > 10 µM (inactive) | > 10 µM (inactive) | > 10 µM (inactive) |
